Experiment [1] has as its target T1, DLD (E3 subunit of purified porcine PDHC) (Sus scrofa, UniProt P09623).
T1 sequence (P09623 36-509): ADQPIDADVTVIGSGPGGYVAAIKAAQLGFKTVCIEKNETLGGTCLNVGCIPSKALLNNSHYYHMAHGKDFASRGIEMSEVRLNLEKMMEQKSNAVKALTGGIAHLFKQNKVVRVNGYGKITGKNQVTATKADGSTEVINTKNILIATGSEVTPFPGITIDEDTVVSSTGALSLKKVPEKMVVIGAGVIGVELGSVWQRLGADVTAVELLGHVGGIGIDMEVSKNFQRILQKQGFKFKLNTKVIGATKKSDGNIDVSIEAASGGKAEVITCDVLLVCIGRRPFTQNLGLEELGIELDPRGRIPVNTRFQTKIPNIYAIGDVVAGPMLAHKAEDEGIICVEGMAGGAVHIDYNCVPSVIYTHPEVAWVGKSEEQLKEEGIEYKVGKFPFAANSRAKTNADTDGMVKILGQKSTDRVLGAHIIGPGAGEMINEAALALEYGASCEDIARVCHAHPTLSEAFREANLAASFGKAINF
The experiment can be described thus: diaphorase activity, NBT-formazan at […] nm and in-gel. The conditions noted are these: 0.1 mg/mL NADH, 0.2 mg/mL NBT, 50 mM potassium phosphate pH 7.0. It counts as biochemical.

The next experiment deals with BCKDC (E2 subunit DBT) (Mus musculus, UniProt P53395). The experiment can be described thus: BCKDC activity of matrix lysate after preincubation, isovaleryl-CoA by LCMS. It counts as biochemical. The settings on record: read-out: % inhibition at 0.1 μM.
Chain of BCKDC (E2 subunit DBT) (P53395 62-482): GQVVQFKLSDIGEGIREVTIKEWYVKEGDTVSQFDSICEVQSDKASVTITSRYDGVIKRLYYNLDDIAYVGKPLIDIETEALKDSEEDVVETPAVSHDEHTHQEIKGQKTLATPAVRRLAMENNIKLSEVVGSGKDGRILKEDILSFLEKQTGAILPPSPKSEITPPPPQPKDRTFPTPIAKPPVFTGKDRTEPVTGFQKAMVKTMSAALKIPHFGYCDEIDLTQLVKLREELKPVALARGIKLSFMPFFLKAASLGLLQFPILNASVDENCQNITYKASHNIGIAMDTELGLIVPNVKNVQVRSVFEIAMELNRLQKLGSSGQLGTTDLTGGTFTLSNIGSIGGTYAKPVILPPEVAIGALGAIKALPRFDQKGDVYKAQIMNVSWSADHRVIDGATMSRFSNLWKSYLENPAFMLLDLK
Chain of BCKDC (E2 subunit DBT) (P50136 43-442 partner): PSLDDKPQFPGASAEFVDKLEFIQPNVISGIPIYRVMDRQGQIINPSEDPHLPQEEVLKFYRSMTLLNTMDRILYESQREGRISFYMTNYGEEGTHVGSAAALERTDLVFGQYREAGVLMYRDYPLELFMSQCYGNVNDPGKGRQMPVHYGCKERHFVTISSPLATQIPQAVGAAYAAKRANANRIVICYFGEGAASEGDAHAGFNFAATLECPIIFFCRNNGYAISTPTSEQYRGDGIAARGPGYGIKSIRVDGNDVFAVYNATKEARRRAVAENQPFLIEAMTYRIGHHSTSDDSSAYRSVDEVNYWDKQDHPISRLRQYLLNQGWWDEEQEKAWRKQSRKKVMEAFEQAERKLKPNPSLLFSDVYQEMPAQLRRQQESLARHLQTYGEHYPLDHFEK
Chain of BCKDC (E2 subunit DBT) (Q6P3A8 49-390 partner): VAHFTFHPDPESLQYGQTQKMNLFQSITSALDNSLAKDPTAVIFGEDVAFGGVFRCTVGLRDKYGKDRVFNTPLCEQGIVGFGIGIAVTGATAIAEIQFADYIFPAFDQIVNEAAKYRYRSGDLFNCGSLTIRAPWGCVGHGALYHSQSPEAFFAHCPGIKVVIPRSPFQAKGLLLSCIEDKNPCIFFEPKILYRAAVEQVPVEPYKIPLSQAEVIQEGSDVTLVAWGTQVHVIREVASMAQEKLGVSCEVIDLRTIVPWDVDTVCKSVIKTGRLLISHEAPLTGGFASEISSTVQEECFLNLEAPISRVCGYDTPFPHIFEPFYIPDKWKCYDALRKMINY
Chain of BCKDC (E2 subunit DBT) (O08749 36-509 partner): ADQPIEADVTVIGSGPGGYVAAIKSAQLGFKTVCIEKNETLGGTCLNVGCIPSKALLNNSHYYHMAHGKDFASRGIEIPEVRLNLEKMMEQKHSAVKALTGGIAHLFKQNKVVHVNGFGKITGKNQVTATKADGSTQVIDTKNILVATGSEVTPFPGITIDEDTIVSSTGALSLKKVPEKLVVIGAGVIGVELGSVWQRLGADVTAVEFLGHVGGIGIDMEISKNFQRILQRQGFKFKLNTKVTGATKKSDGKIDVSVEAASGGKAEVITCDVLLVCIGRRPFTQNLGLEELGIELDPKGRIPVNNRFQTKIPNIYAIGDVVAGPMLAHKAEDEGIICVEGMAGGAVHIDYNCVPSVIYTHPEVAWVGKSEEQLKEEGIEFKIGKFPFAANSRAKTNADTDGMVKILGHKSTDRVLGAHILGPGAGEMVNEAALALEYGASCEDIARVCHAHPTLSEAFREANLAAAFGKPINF

Regarding `NC(=O)C1=CN([C@@H]2O[C@H](COP(=O)(O)OP(=O)(O)OC[C@H]3O[C@@H](n4cnc5c(N)ncnc54)[C@H](O)[C@@H]3O)[C@@H](O)[C@H]2O)C=CC1` [NADH], the “diaphorase activity, NBT-formazan at 568 nm and in-gel” value in experiment [1] is given as “As a blank control, the same amount of mitochondria lysate was mixed with assay buffer without NADH”.
As to `CC(C)(COP(=O)(O)OP(=O)(O)OC[C@H]1O[C@@H](n2cnc3c(N)ncnc32)[C@H](O)[C@@H]1OP(=O)(O)O)[C@@H](O)C(=O)NCCC(=O)NCCSN=O` [SNO-CoA], the inhibition at 0.1 µM at BCKDC (E2 subunit DBT) is more than 50%.

The values above are taken from paper PMC10418113 (bioRxiv, 2023).
